Test results as given in ChEMBL document CHEMBL1212927, “Synthesis and structure-activity relationships of novel 8a-aza-8a-homoerythromycin A ketolides” (2010).
≈ marks a conversion by molar mass, not a printed value.

Assays:
Staphylococcus aureus [1] = assay: Antibacterial activity against constitutive macrolide-lincosamide-streptogramin B-resistant Staphylococcus aureus B0330 by agar microdilution method; type: functional
Streptococcus pyogenes [2] = assay: Antibacterial activity against inducible macrolide-lincosamide-streptogramin B-resistant Streptococcus pyogenes B0543 by agar microdilution method; type: functional
Moraxella catarrhalis = assay: Antibacterial activity against Moraxella catarrhalis B0324 by agar microdilution method; type: functional
Streptococcus pneumoniae [3] = assay: Antibacterial activity against efflux-resistant Streptococcus pneumoniae B0326 by agar microdilution method; type: functional
Streptococcus pyogenes [4] = assay: Antibacterial activity against constitutive macrolide-lincosamide-streptogramin B-resistant Streptococcus pyogenes B0544 by agar microdilution method; type: functional
Staphylococcus aureus [5] = assay: Antibacterial activity against efflux-resistant Staphylococcus aureus B0331 by agar microdilution method; type: functional
Streptococcus pneumoniae [6] = assay: Antibacterial activity against constitutive macrolide-lincosamide-streptogramin B-resistant Streptococcus pneumoniae B0627 by agar microdilution method; type: functional
Streptococcus pyogenes [7] = assay: Antibacterial activity against efflux-resistant Streptococcus pyogenes B0545 by agar microdilution method; type: functional
Staphylococcus aureus [8] = assay: Antibacterial activity against inducible macrolide-lincosamide-streptogramin B-resistant Staphylococcus aureus B0538 by agar microdilution method; type: functional
Streptococcus pneumoniae [9] = assay: Antibacterial activity against erythromycin-susceptible Streptococcus pneumoniae B0541 by agar microdilution method
Staphylococcus aureus [10] = assay: Antibacterial activity against erythromycin A-susceptible Staphylococcus aureus B0329 by agar microdilution method
Streptococcus pyogenes [11] = assay: Antibacterial activity against erythromycin A-susceptible Streptococcus pyogenes B0542 by agar microdilution method
Haemophilus influenzae = assay: Antibacterial activity against Haemophilus influenzae B0529 by agar microdilution method; type: functional

| SMILES | MIC (Staphylococcus aureus [1]) [µg/mL] | MIC (Streptococcus pyogenes [2]) [µg/mL] | MIC (Moraxella catarrhalis) [µg/mL] | MIC (Streptococcus pneumoniae [3]) [µg/mL] | MIC (Streptococcus pyogenes [4]) [µg/mL] | MIC (Staphylococcus aureus [5]) [µg/mL] | MIC (Streptococcus pneumoniae [6]) [µg/mL] | MIC (Streptococcus pyogenes [7]) [µg/mL] | MIC (Staphylococcus aureus [8]) [µg/mL] | MIC (Streptococcus pneumoniae [9]) [µg/mL] | MIC (Staphylococcus aureus [10]) [µg/mL] | MIC (Streptococcus pyogenes [11]) [µg/mL] | MIC (Haemophilus influenzae) [µg/mL] |
| --- | --- | --- | --- | --- | --- | --- | --- | --- | --- | --- | --- | --- | --- |
| CC[C@H]1OC(=O)[C@H](C)C(=O)[C@H](C)[C@@H](O[C@@H]2O[C@H](C)C[C@H](N(C)C)[C@H]2O)[C@](C)(OCC(O)CNc2cnc3ccccc3c2)C[C@@H](C)NC(=O)[C@H](C)[C@@H](O)[C@]1(C)O (stereo partly specified) | > 64 | 4 (≈ 5.07 µM) | 0.5 (≈ 0.634 µM) | 2 (≈ 2.53 µM) | 16 (≈ 20.3 µM) | 1 (≈ 1.27 µM) | 8 (≈ 10.1 µM) | 8 (≈ 10.1 µM) | 2 (≈ 2.53 µM) | ≤ 0.125 | 2 (≈ 2.53 µM) | ≤ 0.125 | 8 (≈ 10.1 µM) |
| CC[C@H]1OC(=O)[C@H](C)C(=O)[C@H](C)[C@@H](O[C@@H]2O[C@H](C)C[C@H](N(C)C)[C@H]2O)[C@](C)(OCC(O)CNc2ccc3ncccc3c2)C[C@@H](C)NC(=O)[C@H](C)[C@@H](O)[C@]1(C)O (stereo partly specified) | > 64 | 2 (≈ 2.53 µM) | 1 (≈ 1.27 µM) | 1 (≈ 1.27 µM) | 8 (≈ 10.1 µM) | 0.25 (≈ 0.317 µM) | 2 (≈ 2.53 µM) | 4 (≈ 5.07 µM) | 2 (≈ 2.53 µM) | ≤ 0.125 | 1 (≈ 1.27 µM) | ≤ 0.125 | 0.5 (≈ 0.634 µM) |
| CC[C@H]1OC(=O)[C@H](C)C(=O)[C@H](C)[C@@H](O[C@@H]2O[C@H](C)C[C@H](N(C)C)[C@H]2O)[C@](C)(OCC(O)CNCc2ccc3ncccc3c2)C[C@@H](C)NC(=O)[C@H](C)[C@@H](O)[C@]1(C)O (stereo partly specified) | > 64 | 2 (≈ 2.49 µM) | 1 (≈ 1.25 µM) | 1 (≈ 1.25 µM) | 8 (≈ 9.96 µM) | 0.25 (≈ 0.311 µM) | 4 (≈ 4.98 µM) | 2 (≈ 2.49 µM) | 0.5 (≈ 0.623 µM) | ≤ 0.125 | 0.5 (≈ 0.623 µM) | ≤ 0.125 | 1 (≈ 1.25 µM) |
| CC[C@H]1OC(=O)[C@H](C)C(=O)[C@H](C)[C@@H](O[C@@H]2O[C@H](C)C[C@H](N(C)C)[C@H]2O)[C@](C)(OC[C@@H](O)CNCCNc2ccc3ncccc3c2)C[C@@H](C)NC(=O)[C@H](C)[C@@H](O)[C@]1(C)O | > 64 | ≤ 0.125 | ≤ 0.125 | ≤ 0.125 | 1 (≈ 1.2 µM) | 0.25 (≈ 0.3 µM) | ≤ 0.125 | 0.5 (≈ 0.601 µM) | 0.25 (≈ 0.3 µM) | ≤ 0.125 | ≤ 0.125 | ≤ 0.125 | 0.25 (≈ 0.3 µM) |
| CC[C@H]1OC(=O)[C@H](C)C(=O)[C@H](C)[C@@H](O[C@@H]2O[C@H](C)C[C@H](N(C)C)[C@H]2O)[C@](C)(OC[C@H](O)CNCCNc2ccc3ncccc3c2)C[C@@H](C)NC(=O)[C@H](C)[C@@H](O)[C@]1(C)O | > 64 | 0.5 (≈ 0.601 µM) | 0.5 (≈ 0.601 µM) | 0.25 (≈ 0.3 µM) | 4 (≈ 4.81 µM) | 0.5 (≈ 0.601 µM) | 0.5 (≈ 0.601 µM) | 0.5 (≈ 0.601 µM) | 0.25 (≈ 0.3 µM) | ≤ 0.125 | ≤ 0.125 | ≤ 0.125 | 0.5 (≈ 0.601 µM) |
| CC[C@H]1OC(=O)[C@H](C)C(=O)[C@H](C)[C@@H](O[C@@H]2O[C@H](C)C[C@H](N(C)C)[C@H]2O)[C@](C)(OCC(O)CN2CCN(c3cnc4ccccc4c3)CC2)C[C@@H](C)NC(=O)[C@H](C)[C@@H](O)[C@]1(C)O (stereo partly specified) | > 64 | 8 (≈ 9.32 µM) | 4 (≈ 4.66 µM) | 1 (≈ 1.17 µM) | 32 (≈ 37.3 µM) | 0.5 (≈ 0.583 µM) | 4 (≈ 4.66 µM) | 4 (≈ 4.66 µM) | 2 (≈ 2.33 µM) | ≤ 0.125 | 1 (≈ 1.17 µM) | ≤ 0.125 | 8 (≈ 9.32 µM) |
| CC[C@H]1OC(=O)[C@H](C)C(=O)[C@H](C)[C@@H](O[C@@H]2O[C@H](C)C[C@H](N(C)C)[C@H]2O)[C@](C)(OCC(O)CN2CCN(c3ccc4ncccc4c3)CC2)C[C@@H](C)NC(=O)[C@H](C)[C@@H](O)[C@]1(C)O (stereo partly specified) | > 64 | 0.25 (≈ 0.291 µM) | 1 (≈ 1.17 µM) | 0.5 (≈ 0.583 µM) | 4 (≈ 4.66 µM) | 2 (≈ 2.33 µM) | 1 (≈ 1.17 µM) | 2 (≈ 2.33 µM) | 0.25 (≈ 0.291 µM) | ≤ 0.125 | 0.25 (≈ 0.291 µM) | ≤ 0.125 | 2 (≈ 2.33 µM) |
| CC[C@H]1OC(=O)[C@H](C)C(=O)[C@H](C)[C@@H](O[C@@H]2O[C@H](C)C[C@H](N(C)C)[C@H]2O)[C@](C)(OCC(O)CNCCc2ccccc2)C[C@@H](C)NC(=O)[C@H](C)[C@@H](O)[C@]1(C)O (mixture of isomers) | > 64 | 1 | 0.5 | 16 | 16 | 8 | 8 | 1 | 16 | 0.25 | 4 | 0.5 | 16 |
| CC[C@H]1OC(=O)[C@H](C)C(=O)[C@H](C)[C@@H](O[C@@H]2O[C@H](C)C[C@H](N(C)C)[C@H]2O)[C@](C)(OCC(O)CNCCCCc2ccccc2)C[C@@H](C)NC(=O)[C@H](C)[C@@H](O)[C@]1(C)O (mixture of isomers) | > 64 | 0.5 | ≤ 0.125 | 4 | 8 | 2 | 1 | 0.5 | 2 | ≤ 0.125 | 2 | 0.25 | 8 |
| CC[C@H]1OC(=O)[C@H](C)C(=O)[C@H](C)[C@@H](O[C@@H]2O[C@H](C)C[C@H](N(C)C)[C@H]2O)[C@](C)(OCC(O)CN[C@H](C)Cc2ccc(OC)cc2)C[C@@H](C)NC(=O)[C@H](C)[C@@H](O)[C@]1(C)O (mixture of isomers) | > 64 | 1 | 0.5 | 16 | 8 | 4 | 2 | 1 | 2 | ≤ 0.125 | 1 | 0.5 | 16 |
| CC[C@H]1OC(=O)[C@H](C)C(=O)[C@H](C)[C@@H](O[C@@H]2O[C@H](C)C[C@H](N(C)C)[C@H]2O)[C@](C)(OCC(O)CNCCc2ccc([N+](=O)[O-])cc2)C[C@@H](C)NC(=O)[C@H](C)[C@@H](O)[C@]1(C)O (mixture of isomers) | > 64 | 0.25 | ≤ 0.125 | 0.5 | 1 | 1 | ≤ 0.125 | 0.25 | 1 | ≤ 0.125 | ≤ 0.125 | ≤ 0.125 | 1 |
| CC[C@H]1OC(=O)[C@H](C)C(=O)[C@H](C)[C@@H](O[C@@H]2O[C@H](C)C[C@H](N(C)C)[C@H]2O)[C@](C)(OCC(O)CN[C@H](C)Cc2ccc([N+](=O)[O-])cc2)C[C@@H](C)NC(=O)[C@H](C)[C@@H](O)[C@]1(C)O (mixture of isomers) | > 64 | 0.5 | 0.25 | 1 | 4 | 2 | 2 | 0.5 | 2 | ≤ 0.125 | 0.5 | ≤ 0.125 | 1 |
